In patent US6140354A, “N-substituted aminotetralins as ligands for the neuropeptide Y Y5 receptor useful in the treatment of obesity and other disorders” (Ortho-McNeil Pharmaceutical, Inc., priority 1999, dated 2000):

Legend:
[1] = molecular target: T1, human neuropeptide Y5 receptor (Homo sapiens, UniProt Q15761); assay: NPY5 HTS Centrifugation Assay: competition with 125I-PYY for binding to NPY5-transfected HEK293 cell membranes; details: 80 pM 125I-PYY, 1 hr room temperature, read-out: % Inh @ 3 uM (% Inhibition of ^125 I-PYY Binding)
T1 construct: expressed in transfected cells
T1 sequence (Q15761 1-445): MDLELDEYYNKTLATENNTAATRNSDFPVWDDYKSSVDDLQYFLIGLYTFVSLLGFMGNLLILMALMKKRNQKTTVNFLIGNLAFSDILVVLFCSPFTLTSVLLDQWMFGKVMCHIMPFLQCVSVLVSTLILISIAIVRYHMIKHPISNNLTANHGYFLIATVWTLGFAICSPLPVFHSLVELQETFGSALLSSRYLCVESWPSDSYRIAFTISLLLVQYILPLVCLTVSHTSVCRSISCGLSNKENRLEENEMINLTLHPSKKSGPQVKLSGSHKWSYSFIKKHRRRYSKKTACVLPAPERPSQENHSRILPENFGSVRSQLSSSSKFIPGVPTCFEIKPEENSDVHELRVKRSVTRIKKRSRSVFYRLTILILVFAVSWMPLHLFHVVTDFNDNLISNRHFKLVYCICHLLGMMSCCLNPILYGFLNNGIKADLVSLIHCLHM
Procedure: The compounds described in this invention were evaluated for binding to the human neuropeptide Y5 receptor.
The human NPY5 receptor cDNA (Genbank Accession number U66275) was inserted into the vector pClneo (Invitrogen) and transfected into human embryonic kidney cells (HEK-293) via Calcium phosphate method (Cullen 1987). Stably transfected cells were selected with G-418 (600 ug/mL). Stably transfected cells served as the source for the membranes for the NPY5 receptor binding assay.
NPY5-transfected HEK293 cells were grown to confluence in 150 cm^2 culture dishes. Cells were washed once with phosphate-buffered saline (Gibco Cat#14040-133). Cells were then incubated in phosphate-buffered saline without Calcium and without Magnesium, supplemented with 2 mM EDTA. Cells were incubated for 10 minutes at room temperature and the cells were collected by repetitive pipeting. Cells were formed into pellets and then frozen at -80 until needed. Frozen pellets were homogenized with a polytron at full speed for 12 seconds in a homogenization buffer (20 mM Tris HCl, 5 mM EDTA, pH 7.4). Homogenates were centrifuged for 5 minutes at 4C at 200 g. Supernatants were transferred to corex tubes and centrifuged for 25 minutes at 28,000 g. Pellets were re-suspended in Binding (20 mM HEPES, 10 mM NaCl, 0.22 mM KH2 PO4, 1.3 mM CaCl2, 0.8 mM MgSO4, pH 7.4). Membranes were kept on ice until use.
A competition binding assay, known to those skilled in the art, was used in which aminotetralins (I) compete with ^125 I-PYY for binding to cell membranes. In simple terms, the less ^125 I-PYY bound to the membranes implies that a compound is a good inhibitor (competitor). Bound ^125 I-PYY is determined by centrifugation of membranes, aspirating supernatant, washing away residual ^125 I-PYY and subsequently counting the bound sample in a g-counter.
Compounds to be tested were prepared as 10× stocks in binding buffer and added first to assay tubes (RIA vials, Sarstedt). Twenty (20) μL of each 10× compound stock is pipeted into vials and 80 μL of ^125 I-PYY (NEN catalog number NEX240), which has been diluted to a concentration of 200 pM in 0.25% BSA in binding buffer, is added to the compound tubes (final concentration of ^125 I-PYY is 80 pM). To each tube is added 100 μL of membranes and the mixture is agitated by pipeting 2 times. Samples are incubated for 1 hr at room temperature. Aluminum cast plates (Sarstedt) containing the vials are then centrifuged 10 minutes at 3200 rpm in a Sorvall RT6000. Supernatant is then aspirated. To each vial 400 μL PBS is added and this is then aspirated again. Vials are then put in carrier polypropylene 12×75 tube and counted in gamma counter (Packard). Non-specific binding is determined in the presence of 300 nM NPY. Percent inhibition of ^125 I-PYY binding is calculated by subtracting non-specific binding from the test samples (compound (I)), taking these counts and dividing by total binding, and multiplying by 100. Inhibitory concentration values (IC50) of compounds that show appreciable inhibition of ^125 I-PYY binding are calculated by obtaining percent inhibition of ^125 I-PYY binding values at different concentrations of the test compound, and using a graphing program such as GraphPad Prism (San Diego, Calif.) to calculate the concentration of test compound that inhibits fifty-percent of ^125 I-PYY binding (Table 4). These operations are known to those skilled in the art.

[2] = Rodent Feeding Model: Measurement of Food Intake in Food-Deprived Rats; assay type: in vivo, Male Long-Evans rats; details: 30 mg/kg i.p., N = 8; for Food Consumption (% chg.) 0-2 hrs / Food Consumption (% chg.) 0-6 hrs / Food Consumption (% chg.) 2-6 hrs: vs vehicle, negative = reduction
Procedure: Male Long-Evans rats (180-200 grams) are housed individually and are maintained on a once-a-day feeding schedule (i.e. 10 a.m. until 4 p.m.) for five days following quarantine to allow the animals to acclimate to feeding on powdered chow (#5002 PMI Certified Rodent Meal) during the allotted time. The chow is made available in an open jar, anchored in the cage by a wire, with a metal follower covering the food to minimize spillage. Water is available ad-libitum.
Animals are fasted for 18 hours prior to testing. At the end of the fasting period, animals are administered either compounds of the invention or vehicle. Vehicle and test compounds are administered either orally (5 mL/kg) 60 minutes prior to the experiment, or 30 minutes prior when given subcutaneously (1 mL/kg) or intraperitoneally (1 mL/kg). Compounds of the invention are administered orally as a suspension in aqueous 0.5% methylcellulose-0.4% Tween 80, or intraperitoneally as a solution or suspension in PEG 200; compound concentrations typically range from 1 mg/kg to 100 mg/kg, preferably from 10-30 mg/kg. Food intake is measured at 2, 4, and 6 hours after administration by weighing the special jar containing the food before the experiment and at the specified times. Upon completion of the experiment, all animals are given a one-week washout period before retesting.
Percent reduction of food consumption is calculated subtracting the grams of food consumed by the treated group from the grams of food consumed by the control group divided by the grams of food consumed by the control group, multiplied by 100. [formula] A negative value indicates a reduction in food consumption and a positive value indicates an increase in food consumption.

[3] = cited from earlier work
classic Y1 receptor = details: cited from earlier work
[4] = icv or into the amygdala; cited from earlier work
[5] = animal models of learning; cited from earlier work
[6] = tested on: forskolin-stimulated cAMP production/levels in a neuroblastoma cell line; details: cited from earlier work

## O=S(=O)(NC[C@H]1CC[C@H](CN[C@H]2CCc3cc(O)ccc3[C@H]2Cc2cccnc2)CC1)c1ccccc1F (relative stereo) [Compound 44, rac-[1α,2α(trans)]-N-[[[[[1,2,3,4-tetrahydro-6-hydroxy-1-(3-pyridinylmethyl)-2-naphthalenyl]amino]methyl]-4-cyclohexyl]methyl]2-fluorobenzenesulfonamide]
[1]
  inhibition at 3 µM: 101%
[2]
  Food Consumption (grams) 0-2 hrs: 4.75 g
  Food Consumption (% chg.) 0-2 hrs: -40.6%
  Food Consumption (grams) 0-6 hrs: 14.00 g
  Food Consumption (% chg.) 0-6 hrs: -24.3%
  Food Consumption (grams) 2-6 hrs: 9.25 g
  Food Consumption (% chg.) 2-6 hrs: -11.9%

## COc1ccc2c(c1)CC[C@H](NC[C@H]1CC[C@H](CNS(=O)(=O)c3ccc(OC)c(OC)c3)CC1)[C@@H]2Cc1ccccc1 (relative stereo) [Compound 53]
[2]
  Food Consumption (grams) 0-2 hrs: 5.75 g
  Food Consumption (% chg.) 0-2 hrs: -33.3%
  Food Consumption (grams) 0-6 hrs: 11.88 g
  Food Consumption (% chg.) 0-6 hrs: -40.2%
  Food Consumption (grams) 2-6 hrs: 6.13 g
  Food Consumption (% chg.) 2-6 hrs: -45.6%

## COc1ccc2c(c1)CCC(NC[C@H]1CC[C@H](CNS(=O)(=O)c3ccccc3F)CC1)C2Cc1cccnc1 (relative stereo) [Compound 43]
[2]
  Food Consumption (grams) 0-2 hrs: 6.63 g
  Food Consumption (% chg.) 0-2 hrs: -17.1%
  Food Consumption (grams) 0-6 hrs: 15.25 g
  Food Consumption (% chg.) 0-6 hrs: -17.6%
  Food Consumption (grams) 2-6 hrs: 8.63 g
  Food Consumption (% chg.) 2-6 hrs: -17.8%

## NPY2-36: NPY fragment
[3]; NPY fragment
  feeding: potent inducer of feeding
Classic Y1 receptor
  binding at the classic Y1 receptor: poor binding

## O=S(=O)(NC[C@H]1CC[C@H](CNC2CCc3cc(F)ccc3C2Cc2cccnc2)CC1)c1ccccc1F (relative stereo) [Compound 111]
[2]
  Food Consumption (grams) 0-2 hrs: 5.13 g
  Food Consumption (% chg.) 0-2 hrs: -35.9%
  Food Consumption (grams) 0-6 hrs: 12.63 g
  Food Consumption (% chg.) 0-6 hrs: -31.7%
  Food Consumption (grams) 2-6 hrs: 7.50 g
  Food Consumption (% chg.) 2-6 hrs: -28.6%

## Neuropeptide Y: single peptide protein that consists of thirty-six amino acids containing an amidated C-terminus
[3]; as little as one-billionth of a gram injected directly into the CNS, satiated rats
  food intake: causes satiated rats to overeat
[4]
  anxiolytic effects: produces anxiolytic effects
[5]
  memory and performance scores: improves memory and performance scores
[6]
  forskolin-stimulated cAMP production/levels: inhibits forskolin-stimulated cAMP production/levels
